What all share (assay type): binding
Test [1] concerns the target T1, SHANK1 PDZ (Homo sapiens, UniProt Q9Y566).
T1 construct: Human Shank1 PDZ domain (656-762) was cloned into the pGEX-6P-2 expression vector; GST (N, cleaved yes); made in house; host or cells: E. coli BL21 Gold
T1 sequence (Q9Y566 656-762): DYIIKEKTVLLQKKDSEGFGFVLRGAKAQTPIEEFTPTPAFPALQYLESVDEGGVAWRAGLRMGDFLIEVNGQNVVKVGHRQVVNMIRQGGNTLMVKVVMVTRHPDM
Description: Fluorescence anisotropy competition assay (FITC-Ahx-TRL-COOH tracer). The conditions noted are these: 50 mM NH4Ac pH 6.5, 10 mM aniline. The protocol: (d) FA competition curves for hybrids from the extended screen. All screening and validation assays were performed in 50 mM NH4Ac buffer, pH 6.5, 10 mM aniline using 1 μM final protein concentration and 10 nM FITC-Ahx-TRL-COOH as tracer at room temperature. […] Anisotropy is expressed relative to the control experiment where no competitor is present. Hit thresholds were defined based on the relative anisotropy of the (i) buffer control (rbuffer − 3σ) and (ii) the TRL control (rTRL − 3σ). Compounds below these thresholds are coloured blue and red respectively.
(0.22 µm membrane) and applied to glutathione beads and washed with 10 CV 20 mM Tris, pH 8, 500 mM NaCl. GST was cleaved on-column overnight at 4 °C using Prescission protease.
The eluted fractions were concentrated and purified by size-exclusion chromatography on S75 26/60 pg column in 20 mM Tris, 150 mM NaCl, 5% glycerol pH 7.5 buffer. Collected fractions were analysed by SDS-PAGE and concentrated. Pure protein was analysed by high resolution […]
determined by UV-VIS spectroscopy using the 8480 M-1 cm-1 extinction coefficient. […]
2.3. Aldehyde library selection
A diverse subset of fragments was selected from commercially available small molecule aldehydes (AldrichCPR, Fluorochem and Acros). Available compounds having one aldehyde functionality were filtered first based on physicochemical properties: 80 Da < MW < 400 Da, HBA, HBD ≤ 3, and clogP ≤ 5. To select a diverse set of compounds , first, binary molecular fingerprint s were generated for each molecule using the FragFp descriptor implemented in DataWarrior (openmolecules.org) , which relies on a predefined substructure fragment library and is used to compare 2D structural similarities. Then, using the same software , structurall y dissimilar subset of compounds was selected based on the molecular fingerprints. Compounds were further excluded based on undesired functional groups and commerical availability , […]
carboxylic acid functional groups.
2.4. Fluorescence anisotropy
Fluorescence anisotropy assays were performed in 384-well plates (Greiner Bio-one) and the fluorescence anisotropy measured using a Perkin Elmer EnVisionTM 2103 MultiLabel plate reader, with excitation at 480 nm (30 nm bandwidth), polarised dichroic mirror at 505 nm and […]
°C. Fluorescence anisotropy data was processed as described previously.4 The data from both […]
the P (perpendicular intensity) and S (parallel intensity) channels, resulting from this measurement and corrected by subtracting the corresponding control wells, were used to calculate the intensity and anisotropy for each well following Equations 1 and 2: […]
r = anisotropy, I = total intensity, P = perpendicular intensity, S = parallel intensity, G is an […]
Assays were performed in 50 mM NH4Ac, 10 mM aniline, pH 6.5 buffer. Shank 1 PDZ was dialysed into the assay buffer prior to the experiment. […]
Background: Fluorescence polarisation rises when a labelled molecule tumbles more slowly, as on binding a larger partner.

Test [2] has as its target T1, SHANK1 PDZ. Description: Isothermal titration calorimetry (ITC). Conditions: for Kd / n (ITC stoichiometry) / ΔH / ΔS: 25 mM Tris pH 7.5, 150 mM NaCl, 25 °C. As for the experimental part:
Fitted thermograms and thermodynamic signatures for the tested peptides and hydrazones. […] For individual raw ITC data and fitted thermograms see Fig. S14. ^† […]
Figure S14. Raw ITC data (top) and fitted thermograms (bottom) for the tested hydrazone hits and […]
0.75-1 mM peptide or hydrazone solution to 75-150 µM protein.
(1 picture or pasted object on this page, not shown here)
2.5. Isothermal tritration calorimetry
ITC experiments were carried out using Microcal ITC200i instrument (Malvern) at 25°C […]
Shank1 PDZ was dialysed against the buffer prior to experiment, lyophilized peptides and hydrazones were dissolved in the same buffer. 75 or […]
depending on compound solubility, from the syringe using 2 µL injections with 120 s spacing between the injections for 20 injection. Heats of peptide dilution w ere measured by titrating the peptide into buffer and subtracted from each measurement. Dat a was analysed using Microcal Origin 8 and fitt ed to a one-binding site model. […]
In general terms: ITC needs no label: the signal is the heat of the interaction.

Test [3] deals with T1, SHANK1 PDZ. The experiment in a line: Fluorescence anisotropy direct titration with FITC-labelled GKAP tracer. As for the experimental part:
A diversity-based selection was performed on commercially available aldehyde fragments obeying guidelines for fragment-based drug design,[75] resulting in a small library of 129 compounds (A001–A129, Table S1 and Fig. S1 ^†). […] To allow us to perform the hybrid formation and screening in the presence of the target protein in a single step, it was necessary to first establish that SHANK1 PDZ was still able to bind to its natural ligand under the same conditions.
Figure S2. Rate of hydrazone exchange in 50 mM ammonium-acetate (NH4Ac), pH 6.5, 10 mM aniline buffer using 100 µM compound 4-A001 and 5 equivalents of three different aldehydes (corresponding to R2 groups) at room temperature. Hydrazone exchange was monitored by LC -MS; peaks for extracted ion chromatograms were integrated and normalized . […]
Figure S3. Fluorescence anisotropy direct titration of S HANK1 PDZ in 50 mM NH4Ac, pH 6.5 10 mM aniline containing buffer using 50 nM FITC-Ahx-GKAP as tracer. Plate was read after 24 hr incubation […]
Assays were performed in 50 mM NH4Ac, 10 mM aniline, pH 6.5 buffer. […] Fluorescence anisotropy direct titration assays were performed with protein concentration diluted over 24 points using ½ dilutions. […]
final protein concentration. […] For control wells, the tracer peptide was replaced with an identical volume of assay buffer and plates were read immediately, and after an hour or after 24 hours . […]

Test [4] addresses T2, PDZ domain of PSD-95 (PSD-95 PDZ1) (Homo sapiens, UniProt P78352).
T2 construct: made in house
Description: 1H-15N HSQC chemical shift perturbation titration. Conditions: Fig. S24. The source says:
Since Class I PDZ domains bind to consensus sequences,[71,72] we set out to further assess the selectivity of the peptide-fragment hybrids against another Class I PDZ domain. We compared the ability to bind to SHANK1 PDZ against the ability to bind to the PDZ domain of PSD-95, a therapeutically important target in neuronal diseases and cancer.[58] We monitored the binding using chemical shift perturbations in the ^1H–^15N HSQC spectra of the PDZ domain of PSD-95 (Fig. S22, S23, Tables S7 and S8 ^†). […] However, PSD-95 also lacks the patch of cationic residues proximal to the C-terminal carboxylate binding site. Such a result provides confidence that the dynamic ligation screening approach used here can encode and retain selectivity.
PSD 95 PDZ1 amino acid sequence
Figure S22. Overlay of plots for 4-A047 with Ligand:protein ratio ranging from 1:1 to 100:1. The gradual change in chemical shifts of limited residues indicate that the binding of the ligand is specific and to the putative ligand binding site.
Figure S23. Mapping of chemical shift changes onto the structure of PSD95 PDZ1 using PDB Accession Code 2KA9 (cypin peptide in magenta). Residues whose chemical shifts are affected are coloured yellow; these residues line the binding site. […]
Table S7. Concentration dependent shift changes of compound 4-A047 for a few residues whose chemical shifts have been assigned […]

Where [5] appears, read: x-A001 incubated with 5 equiv aldehyde in presence of protein for 24 h, then 10 nM FITC-Ahx-TRL-COOH, SHANK1 PDZ 1 M, read-out: IC50 (Fig. S7-S9, S11, S12, hybrids selected for validation from single point screens).
Where [6] appears, read: Table S2, relative to core Ac-TRL-OH motif.
Setting [7] is: 1 µM Shank1 PDZ, 10 nM FITC-Ahx-TRL-COOH, plates read immediately, room temperature, read-out: IC50 (Fig. S4, parent peptides and benzaldehyde hydrazones).

Like-named read-outs stand apart in the source and are kept apart here. Residues, ends and D or L forms follow the SMILES beside them. *: point of attachment. FITC = O=C1OC2(c3ccc(O)cc3Oc3cc(O)ccc32)c2ccc(NC(=S)*)cc21; Ahx = NCCCCCC(=O)O

Broadly, the IC50 is the concentration needed to halve the response being measured. The Kd is a measure of binding affinity in units of concentration. By EC50 is commonly meant the concentration that produces a half-maximal response.

T2 sequence (P78352 with tags, fused parts or gaps): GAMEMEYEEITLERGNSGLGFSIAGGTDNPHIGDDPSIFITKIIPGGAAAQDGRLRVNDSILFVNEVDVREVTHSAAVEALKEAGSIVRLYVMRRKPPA

In the case of `CC(C)C[C@H](NC(=O)[C@H](CCCNC(=N)N)NC(=O)[C@@H](NC(=O)CCC(=O)N/N=C/c1ccccc1C(=O)O)[C@@H](C)O)C(=O)O` [3-A047], the concentration for half-maximal inhibition (IC50) on SHANK1 PDZ [1] (setting [5]) stood at 14 ± 1 µM. This compound also gave a Kd on SHANK1 PDZ [2] of 8 ± 1 µM.
For the compound `CC(C)C[C@H](NC(=O)[C@H](CCCNC(=N)N)NC(=O)[C@@H](NC(=O)[C@H](CCC(N)=O)NC(=O)[C@H](C)NC(=O)[C@H](CCC(=O)O)NC(=O)CCCCCNC(=S)Nc1ccc2c(c1)C(=O)OC21c2ccc(O)cc2Oc2cc(O)ccc21)[C@@H](C)O)C(=O)O` [FITC-Ahx-GKAP] ({FITC-Ahx}-EAQTRL-OH; C-terminus assumed), the Kd on SHANK1 PDZ [3] (50 mM NH4Ac pH 6.5, 10 mM aniline, 50 nM tracer, read after 24 hr incubation at room temperature, read-out: KD (Fig. S3)) was 0.96 ± 0.08 µM; at SHANK1 PDZ [3] (KD (initial) of FITC labelled GKAP, pH 6.5, 10 mM aniline, did not significantly change over 24 hours) it was approximately 1 µM.
For `CC(C)C[C@H](NC(=O)[C@H](CCCNC(=N)N)NC(=O)[C@@H](NC(=O)CCCC(=O)N/N=C/c1ccc(Cl)cc1C(=O)O)[C@@H](C)O)C(=O)O` [4-A144], the IC50 at SHANK1 PDZ [1] (setting [5]) turned out to be 3.7 ± 0.4 µM. This compound had a Kd at SHANK1 PDZ [2] of 3.1 ± 0.2 µM.
In the case of “Ac-EAQTRL-OH [GKAP, Ac-EAQTRL-COOH, reference compound]”, on SHANK1 PDZ [2], the “n (ITC stoichiometry)” value was determined as 1.07 ± 0.01, the ΔH was -7.07 ± 0.096 kcal/mol and the ΔS was determined as 9.7 J mol^−1 K^−1. For the same compound, the “ΔΔG (ΔGCompound-ΔGAc-TRL-OH)” value on SHANK1 PDZ [2] (setting [6]) was -1.44 kcal/mol.
For the compound `CC(C)C[C@H](NC(=O)[C@H](CCCNC(=N)N)NC(=O)[C@@H](NC(=O)CCC(=O)N/N=C/c1cccc(OC(C(=O)O)c2ccccc2)c1)[C@@H](C)O)C(=O)O` (stereo partly drawn) [3-A161], binding at SHANK1 PDZ [2] was put at a Kd of 4.8 ± 0.4 µM.
As to `CC(C)C[C@H](NC(=O)[C@H](CCCNC(=N)N)NC(=O)[C@@H](NC(=O)CCC(=O)N/N=C/c1ccc(C(=O)O)cc1)[C@@H](C)O)C(=O)O` [3-A048], the half-maximal inhibitory concentration (IC50) at SHANK1 PDZ [1] (setting [5]) stood at 11 ± 1 µM. The compound further showed a Kd on SHANK1 PDZ [2] of 10 ± 1 µM.
In the case of `CC(C)C[C@H](NC(=O)[C@H](CCCNC(=N)N)NC(=O)[C@@H](NC(=O)CCCC(=O)NN=Cc1ccccc1)[C@@H](C)O)C(=O)O` [4-A001], the half-inhibitory concentration (IC50) on SHANK1 PDZ [1] (setting [7]) amounted to 19 ± 3 µM. The compound further had a Kd at SHANK1 PDZ [2] of 14.8 ± 0.8 µM.
For the compound `CC(C)C[C@H](NC(=O)[C@H](CCCNC(=N)N)NC(=O)[C@@H](NC(=O)CCCC(=O)N/N=C/c1ccc(C(=O)O)cc1)[C@@H](C)O)C(=O)O` [4-A048], the half-inhibitory concentration (IC50) on SHANK1 PDZ [1] (setting [5]) stood at 7.5 ± 0.8 µM. Besides, at SHANK1 PDZ [2], the Kd was 3.1 ± 0.2 µM.
On to `CC(C)C[C@H](NC(=O)[C@H](CCCNC(=N)N)NC(=O)[C@@H](NC(=O)CCCC(=O)N/N=C/c1ccccc1C(=O)O)[C@@H](C)O)C(=O)O` [4-A047], for which the IC50 at SHANK1 PDZ [1] (setting [5]) was found to be 7.3 ± 0.6 µM. Also, the EC50 in test [4] worked out at 2400 ± 300 µM. Besides, the Kd on SHANK1 PDZ [2] worked out at 4.6 ± 0.2 µM.
With `CC(C)C[C@H](NC(=O)[C@H](CCCNC(=N)N)NC(=O)[C@@H](NC(=O)CCCC(=O)N/N=C/c1cccc(OC(C(=O)O)c2ccccc2)c1)[C@@H](C)O)C(=O)O` (stereo partly drawn) [4-A161], binding at SHANK1 PDZ [2] was characterised by a dissociation constant (Kd) of 1.54 ± 0.05 µM.
As to `CC(C)C[C@H](NC(=O)[C@H](CCCNC(=N)N)NC(=O)[C@@H](NC(=O)CCC(=O)N/N=C/c1ccc(Cl)cc1C(=O)O)[C@@H](C)O)C(=O)O` [3-A144], the IC50 at SHANK1 PDZ [1] (setting [5]) was 9 ± 1.6 µM. On SHANK1 PDZ [2], this compound gave a Kd of 7.1 ± 0.9 µM.
Turning to `CC(C)C[C@H](NC(=O)[C@H](CCCNC(=N)N)NC(=O)[C@@H](NC(=O)CCC(=O)NN=Cc1ccccc1)[C@@H](C)O)C(=O)O` [3-A001], the half-inhibitory concentration (IC50) at SHANK1 PDZ [1] (setting [7]) stood at 51 ± 3 µM. Further, at SHANK1 PDZ [2], the Kd is 16 ± 3 µM, the “n (ITC stoichiometry)” value worked out at 1.04 ± 0.04, the ΔH was -2.32 ± 0.14 kcal/mol and the ΔS came to 59.0 J mol^−1 K^−1. Also, at SHANK1 PDZ [2] (setting [6]), the “GE group efficiency (-ΔΔG/ΔNnH)” value was found to be 0.07 and the “ΔΔG (ΔGCompound-ΔGAc-TRL-OH)” value is -0.201 kcal/mol.

(Values after paper PMC8179271, “Identification of β-strand mediated protein–protein interaction inhibitors using ligand-directed fragment ligation” (Chemical Science, 2021).)
